Data taken from patent US10376520B2, “Methods for the treatment of cardiovascular disorders” (Galapagos NV, priority 2015, dated 2019).

Tested on: RA patients
Assay: [HDL] determination, Study 1 (RA patients, add-on to MTX)
Format: in vivo, human
Protocol: Double-blind, placebo-controlled add on study in subjects with moderately to severely active RA who have an inadequate response to methotrexate (MTX) (oral or parenteral).
595 subjects randomized to one of 6 dose regimens of Compound 1 (dosed as a [Compound 1:HCl:3H2O]) (3 dose levels administered either once or twice daily) or placebo on top of each subject's stable dose of MTX.
Compound 1 (dosed as a [Compound 1:HCl:3H2O]) is dosed for twelve weeks once daily (q.d.) (50 mg, 100 mg or 200 mg) or twice daily (b.i.d.) (25 mg, 50 mg or 100 mg); or placebo.
At Week 12, the subjects on placebo who have not achieved 20% improvement in swollen joint count (SJC66) and tender joint count (TJC68) are re-randomized automatically to receive Compound 1 (dosed as a [Compound 1:HCl:3H2O]) either at 100 mg q.d. or 50 mg b.i.d. doses in a blinded fashion; subjects on 50 mg q.d. who have not achieved 20% improvement in SJC66 and TJC68 will be assigned to 100 mg q.d. and subjects on 25 mg b.i.d. that have not achieved a 20% improvement in SJC66 and TJC68 will be assigned to 50 mg b.i.d. Subjects who switch treatment at week 12 are handled as if they discontinued at week 12 for the purpose of statistical analysis, whereas subjects in the other groups will maintain their randomized treatment until Week 24.
This assay relies on a homogeneous enzymatic colorimetric test. In the presence of magnesium ions, dextran sulfate selectively forms water-soluble complexes with LDL, VLDL and chylomicrons which are resistant to PEG-modified enzymes.
The cholesterol concentration of [HDL]-cholesterol is determined enzymatically by cholesterol esterase and cholesterol oxidase coupled with PEG to the amino groups (approx. 40%).
In the presence of peroxidase, the hydrogen peroxide generated reacts with 4-amino-antipyrine and Sodium N-(2-hydroxy-3-sulfopropyl)-3,5-dimethoxyaniline (HSDA) to form a purple-blue dye. The color intensity of this dye is directly proportional to the cholesterol concentration and is measured photometrically.
Human serum and plasma samples [HDL] determination was done on a Roche/Hitachi Cobas c 701/702 system which automatically calculate the analyte concentration of each sample. Samples containing precipitates are centrifuged before performing the assay.

[1] = continued 200 mg q.d. (N = 86), week 4
[2] = continued 200 mg q.d. (N = 86), week 8
[3] = continued 200 mg q.d. (N = 86), week 12
[4] = continued 200 mg q.d. (N = 86), week 16
[5] = continued 200 mg q.d. (N = 86), week 20
[6] = continued 200 mg q.d. (N = 86), week 24
[7] = from 25 mg b.i.d. to 50 mg b.i.d at 12 weeks (N = 17), week 1
[8] = from 25 mg b.i.d. to 50 mg b.i.d at 12 weeks (N = 17), week 2
[9] = from 25 mg b.i.d. to 50 mg b.i.d at 12 weeks (N = 17), week 4
[10] = from 25 mg b.i.d. to 50 mg b.i.d at 12 weeks (N = 17), week 8
[11] = from 25 mg b.i.d. to 50 mg b.i.d at 12 weeks (N = 17), week 12
[12] = from 25 mg b.i.d. to 50 mg b.i.d at 12 weeks (N = 17), week 24
[13] = from 50 mg q.d. to 100 mg q.d. at 12 weeks (N = 19), week 1
[14] = from 50 mg q.d. to 100 mg q.d. at 12 weeks (N = 19), week 2
[15] = from 50 mg q.d. to 100 mg q.d. at 12 weeks (N = 19), week 4
[16] = from 50 mg q.d. to 100 mg q.d. at 12 weeks (N = 19), week 8
[17] = from 50 mg q.d. to 100 mg q.d. at 12 weeks (N = 19), week 12
[18] = from 50 mg q.d. to 100 mg q.d. at 12 weeks (N = 19), week 16
[19] = from 50 mg q.d. to 100 mg q.d. at 12 weeks (N = 19), week 20
[20] = from 50 mg q.d. to 100 mg q.d. at 12 weeks (N = 19), week 24
[21] = placebo switched to 50 mg b.i.d at week 12 (N = 15), week 16
[22] = placebo switched to 50 mg b.i.d at week 12 (N = 15), week 20
[23] = placebo switched to 50 mg b.i.d at week 12 (N = 15), week 24

O=C(Nc1nc2cccc(-c3ccc(CN4CCS(=O)(=O)CC4)cc3)n2n1)C1CC1 [Compound 1, cyclopropanecarboxylic acid {5-[4-(1,1-dioxo-thiomorpholin-4-ylmethyl)-phenyl]-[1,2,4]triazolo[1,5-a]pyridin-2yl}-amide]
[HDL] Mean percentage CFB - 24 weeks results [1]: 19.85%
[HDL] Median CFB - 24 weeks results [1]: 0.25 mmol/L
[HDL] Mean CFB - 24 weeks results [2]: 0.29 mmol/L
[HDL] Mean percentage CFB - 24 weeks results [2]: 21.85%
[HDL] Median CFB - 24 weeks results [2]: 0.30 mmol/L
[HDL] Mean CFB - 24 weeks results [3]: 0.27 mmol/L
[HDL] Mean percentage CFB - 24 weeks results [3]: 21.24%
[HDL] Median CFB - 24 weeks results [3]: 0.26 mmol/L
[HDL] Mean CFB - 24 weeks results [4]: 0.27 mmol/L
[HDL] Mean percentage CFB - 24 weeks results [4]: 21.14%
[HDL] Median CFB - 24 weeks results [4]: 0.23 mmol/L
[HDL] Mean CFB - 24 weeks results [5]: 0.30 mmol/L
[HDL] Mean percentage CFB - 24 weeks results [5]: 24.27%
[HDL] Median CFB - 24 weeks results [5]: 0.30 mmol/L
[HDL] Mean CFB - 24 weeks results [6]: 0.26 mmol/L
[HDL] Mean percentage CFB - 24 weeks results [6]: 20.78%
[HDL] Median CFB - 24 weeks results [6]: 0.25 mmol/L
[HDL] Mean CFB - 24 weeks results [7]: -0.05 mmol/L
[HDL] Mean percentage CFB - 24 weeks results [7]: −1.35%
[HDL] Median CFB - 24 weeks results [7]: -0.01 mmol/L
[HDL] Mean CFB - 24 weeks results [8]: 0.03 mmol/L
[HDL] Mean percentage CFB - 24 weeks results [8]: 4.08%
[HDL] Median CFB - 24 weeks results [8]: 0.05 mmol/L
[HDL] Mean CFB - 24 weeks results [9]: -0.01 mmol/L
[HDL] Mean percentage CFB - 24 weeks results [9]: 1.09%
[HDL] Median CFB - 24 weeks results [9]: 0.00 mmol/L
[HDL] Mean CFB - 24 weeks results [10]: -0.02 mmol/L
[HDL] Mean percentage CFB - 24 weeks results [10]: 0.59%
[HDL] Median CFB - 24 weeks results [10]: 0.05 mmol/L
[HDL] Mean CFB - 24 weeks results [11]: 0.04 mmol/L
[HDL] Mean percentage CFB - 24 weeks results [11]: 5.55%
[HDL] Median CFB - 24 weeks results [11]: 0.00 mmol/L
[HDL] Mean percentage CFB - 24 weeks results (from 25 mg b.i.d. to 50 mg b.i.d at 12 weeks (N = 17), week 16): 7.37%
[HDL] Mean percentage CFB - 24 weeks results (from 25 mg b.i.d. to 50 mg b.i.d at 12 weeks (N = 17), week 20): 1.50%
[HDL] Mean CFB - 24 weeks results [12]: 0.10 mmol/L
[HDL] Mean percentage CFB - 24 weeks results [12]: 8.10%
[HDL] Median CFB - 24 weeks results [12]: 0.17 mmol/L
[HDL] Mean CFB - 24 weeks results [13]: 0.02 mmol/L
[HDL] Mean percentage CFB - 24 weeks results [13]: 2.29%
[HDL] Median CFB - 24 weeks results [13]: 0.00 mmol/L
[HDL] Mean CFB - 24 weeks results [14]: 0.10 mmol/L
[HDL] Mean percentage CFB - 24 weeks results [14]: 6.63%
[HDL] Median CFB - 24 weeks results [14]: 0.07 mmol/L
[HDL] Mean CFB - 24 weeks results [15]: 0.07 mmol/L
[HDL] Mean percentage CFB - 24 weeks results [15]: 5.26%
[HDL] Median CFB - 24 weeks results [15]: 0.06 mmol/L
[HDL] Mean CFB - 24 weeks results [16]: 0.05 mmol/L
[HDL] Mean percentage CFB - 24 weeks results [16]: 5.77%
[HDL] Median CFB - 24 weeks results [16]: 0.09 mmol/L
[HDL] Mean CFB - 24 weeks results [17]: -0.02 mmol/L
[HDL] Mean percentage CFB - 24 weeks results [17]: 2.41%
[HDL] Median CFB - 24 weeks results [17]: -0.05 mmol/L
[HDL] Mean CFB - 24 weeks results [18]: 0.18 mmol/L
[HDL] Mean percentage CFB - 24 weeks results [18]: 11.43%
[HDL] Median CFB - 24 weeks results [18]: 0.15 mmol/L
[HDL] Mean CFB - 24 weeks results [19]: 0.13 mmol/L
[HDL] Mean percentage CFB - 24 weeks results [19]: 8.89%
[HDL] Median CFB - 24 weeks results [19]: 0.20 mmol/L
[HDL] Mean CFB - 24 weeks results [20]: 0.11 mmol/L
[HDL] Mean percentage CFB - 24 weeks results [20]: 8.29%
[HDL] Median CFB - 24 weeks results [20]: 0.11 mmol/L
[HDL] Mean CFB - 24 weeks results [21]: 0.08 mmol/L
[HDL] Mean percentage CFB - 24 weeks results [21]: 10.96%
[HDL] Median CFB - 24 weeks results [21]: 0.18 mmol/L
[HDL] Mean CFB - 24 weeks results [22]: 0.10 mmol/L
[HDL] Mean percentage CFB - 24 weeks results [22]: 12.63%
[HDL] Median CFB - 24 weeks results [22]: 0.21 mmol/L
[HDL] Mean CFB - 24 weeks results [23]: 0.10 mmol/L
[HDL] Mean percentage CFB - 24 weeks results [23]: 10.63%
[HDL] Median CFB - 24 weeks results [23]: 0.10 mmol/L
[HDL] Mean percentage CFB - 24 weeks results (placebo switched to 100 mg q.d. at week 12 (N = 15), week 16): −0.14%
[HDL] Mean percentage CFB - 24 weeks results (placebo switched to 100 mg q.d. at week 12 (N = 15), week 20): 0.95%
[HDL] Mean percentage CFB - 24 weeks results (placebo switched to 100 mg q.d. at week 12 (N = 15), week 24): 0.14%
